Literature values as cited in patent US10335411B2, “Administration of ubiquitin-activating enzyme inhibitor and radiation” (Millennium Pharmaceuticals, Inc., priority 2014, dated 2019).

Key:
[1] = tested on: leukemia and myeloma cell lines; settings: Xu et al., 2010; cited from earlier work
[2] = tested on: mouse acute myeloid leukemia (AML model); settings: Xu et al., 2010; cited from earlier work

O=C1NN(c2ccc(F)c(Cl)c2)C(=O)/C1=C\c1ccc([N+](=O)[O-])o1 [PYZD-4409]
cell death [1]: induced cell death | anti-tumor activity [2]: induced anti-tumor activity
